This is an account of results in ChEMBL document CHEMBL5236544, “Furazans in Medicinal Chemistry” (J Med Chem, 2021).

The target in series [1] is Ribosomal protein S6 kinase beta-1 (Homo sapiens, UniProt P23443). As to the kind of experiment: Inhibition of p70S6 (unknown origin) […].
Series [2] can be described thus: Half life in rat, iv. As to conditions: in vivo. Type of series: ADME.
For a further series, the system named is HeLa. As to the kind of experiment: Antitumor activity against human HeLa cells xenografted in mouse model assessed as reduction in tumor growth at 100 mg/kg bid relative to control. The class given is functional. Also on record: scale not given: the % may be the effect or the level left. (In general: A xenograft is tissue or cells of one species grown in another, often human tumour cells in immunodeficient mice.)

Series [3] concerns Rattus norvegicus. As to the kind of experiment: Antihypertensive activity in spontaneously hypertensive rat model assessed as change in heart rate at 10 mg/Kg, po measured after 6 hrs. The class given is functional.
Series [4] concerns Rattus norvegicus. As to the kind of experiment: Antihypertensive activity in spontaneously hypertensive rat model assessed as change in heart rate at 1 mmol/Kg, po measured after 10 hrs. Type of series: functional.
Series [5] has as its system Rattus norvegicus. As to the kind of experiment: Antihypertensive activity in spontaneously hypertensive rat model assessed as change in blood pressure at 10 mg/kg, po measured after 3 hrs. The class given is functional.
The test system of series [6] is Rattus norvegicus. As to the kind of experiment: Antihypertensive activity in spontaneously hypertensive rat model assessed as change in blood pressure at 10 mg/kg, po measured after 6 hrs. Type of series: functional.
Series [7] concerns Rattus norvegicus. As to the kind of experiment: Antihypertensive activity in spontaneously hypertensive rat model assessed as change in blood pressure at 10 mg/kg, po measured after 10 hrs. The class given is functional.
Series [8] has as its system Rattus norvegicus. As to the kind of experiment: Antihypertensive activity in spontaneously hypertensive rat model assessed as change in heart rate at 1 mmol/Kg, po measured after 3 hrs. The class given is functional.
The species entered for series [9] is Rattus norvegicus. As to the kind of experiment: Antihypertensive activity in spontaneously hypertensive rat model assessed as reduction in pulmonary arterial pressure. Type of series: functional.
The species entered for series [10] is Rattus norvegicus. As to the kind of experiment: Antihypertensive activity in spontaneously hypertensive rat model assessed as reduction in systemic arterial pressure. Type of series: functional.
Series [11] concerns A549. As to the kind of experiment: Antiproliferative activity against human A549 cells assessed as inhibition of cell proliferation by MTT assay. The class given is functional, cell-based.
Series [12] concerns HCT-116. As to the kind of experiment: Antiproliferative activity against human HCT-116 cells assessed as inhibition of cell proliferation by MTT assay. Type of series: functional, cell-based. A general note: Tetrazolium assays rely on reduction of a dye to a coloured formazan, in cell work by metabolically active cells.
Series [13] can be described thus: Antiproliferative activity against mouse Lewis lung carcinoma cell line cells assessed as inhibition of cell proliferation by MTT assay. Type of series: functional, cell-based.
The next series has as its target Histone deacetylase. As to the kind of experiment: Inhibition of HDAC (unknown origin). The class given is protein assay, Homo sapiens.
Series [14] deals with A549. As to the kind of experiment: Antitumor activity against human A549 cells xenografted in mouse model assessed as reduction in tumor growth at 100 mg/kg bid relative to control. Also on record: scale not given: the % may be the effect or the level left. Type of series: functional.
The target of a further series is Aurora kinase B (Homo sapiens, UniProt Q96GD4). As to the kind of experiment: Inhibition of Aurora B (unknown origin).
Chain of Aurora kinase B (Q96GD4 whole entry): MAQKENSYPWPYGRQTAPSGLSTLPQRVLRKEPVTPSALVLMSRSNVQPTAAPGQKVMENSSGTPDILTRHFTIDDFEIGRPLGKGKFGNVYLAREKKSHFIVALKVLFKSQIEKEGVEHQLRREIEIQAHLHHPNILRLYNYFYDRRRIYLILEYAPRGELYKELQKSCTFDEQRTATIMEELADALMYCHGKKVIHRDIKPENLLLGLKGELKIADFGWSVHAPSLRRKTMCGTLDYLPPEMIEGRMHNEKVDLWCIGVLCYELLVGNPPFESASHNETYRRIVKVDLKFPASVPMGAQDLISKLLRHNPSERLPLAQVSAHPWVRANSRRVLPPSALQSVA
Series [15] addresses Epidermal growth factor receptor (Homo sapiens, UniProt P00533). As to the kind of experiment: Inhibition of EGF-R (unknown origin).
The target of series [16] is Insulin-like growth factor 1 receptor (Homo sapiens, UniProt P08069). As to the kind of experiment: Inhibition of IGF-1R (unknown origin).
Chain of Insulin-like growth factor 1 receptor (P08069 31-736 limits assumed): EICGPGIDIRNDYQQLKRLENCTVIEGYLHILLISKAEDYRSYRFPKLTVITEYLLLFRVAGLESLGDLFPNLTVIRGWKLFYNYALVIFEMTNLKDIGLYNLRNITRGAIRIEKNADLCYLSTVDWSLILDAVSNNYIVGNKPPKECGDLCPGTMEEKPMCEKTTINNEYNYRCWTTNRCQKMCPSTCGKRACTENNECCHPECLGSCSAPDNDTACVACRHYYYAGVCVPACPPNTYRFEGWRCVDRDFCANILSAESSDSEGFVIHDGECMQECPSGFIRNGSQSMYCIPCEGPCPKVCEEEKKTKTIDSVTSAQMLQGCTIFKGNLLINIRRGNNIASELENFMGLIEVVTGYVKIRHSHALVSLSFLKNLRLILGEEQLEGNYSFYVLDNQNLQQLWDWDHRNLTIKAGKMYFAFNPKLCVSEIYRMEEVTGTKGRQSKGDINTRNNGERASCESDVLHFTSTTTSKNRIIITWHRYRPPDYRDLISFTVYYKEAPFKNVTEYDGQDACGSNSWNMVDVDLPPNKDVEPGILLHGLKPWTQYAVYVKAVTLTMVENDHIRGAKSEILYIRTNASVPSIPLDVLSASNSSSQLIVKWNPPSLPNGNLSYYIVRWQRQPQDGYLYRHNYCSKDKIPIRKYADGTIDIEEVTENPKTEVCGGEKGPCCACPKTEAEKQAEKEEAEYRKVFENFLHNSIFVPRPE
Chain of Insulin-like growth factor 1 receptor (P08069 741-1367 limits assumed): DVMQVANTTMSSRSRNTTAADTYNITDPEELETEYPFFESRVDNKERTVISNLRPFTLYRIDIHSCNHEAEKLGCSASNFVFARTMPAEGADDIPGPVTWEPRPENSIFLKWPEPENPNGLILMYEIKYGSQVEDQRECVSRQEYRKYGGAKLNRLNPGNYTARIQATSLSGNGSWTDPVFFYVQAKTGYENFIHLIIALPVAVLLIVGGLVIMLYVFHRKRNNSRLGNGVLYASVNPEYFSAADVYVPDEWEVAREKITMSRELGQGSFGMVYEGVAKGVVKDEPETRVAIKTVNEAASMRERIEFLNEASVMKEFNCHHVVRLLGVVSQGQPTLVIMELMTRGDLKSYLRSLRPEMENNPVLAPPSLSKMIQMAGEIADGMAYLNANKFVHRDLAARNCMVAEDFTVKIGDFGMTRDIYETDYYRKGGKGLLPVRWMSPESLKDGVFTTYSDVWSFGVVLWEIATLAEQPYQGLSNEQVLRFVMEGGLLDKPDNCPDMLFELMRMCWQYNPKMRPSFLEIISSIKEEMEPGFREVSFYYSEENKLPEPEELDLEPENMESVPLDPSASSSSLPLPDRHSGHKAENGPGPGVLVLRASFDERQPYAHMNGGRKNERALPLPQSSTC
Series [17] concerns the target Vascular endothelial growth factor receptor 2 (Homo sapiens, UniProt P35968). As to the kind of experiment: Inhibition of VEGF-R2 (unknown origin).
Series [18] addresses Proto-oncogene tyrosine-protein kinase Src (Homo sapiens, UniProt P12931). As to the kind of experiment: Inhibition SRC (unknown origin).
For another series, the system named is HASMC. As to the kind of experiment: Antiproliferative activity against human HASMC cells assessed as inhibition of cell proliferation measured after 24 hrs by MTT assay. Type of series: functional, cell-based.
The test system of series [19] is Rattus norvegicus. As to the kind of experiment: Antihypertensive activity in spontaneously hypertensive rat model assessed as change in blood pressure at 3 mg/kg, po measured after 3 hrs. The class given is functional.
For series [20], the system named is Rattus norvegicus. As to the kind of experiment: Antihypertensive activity in spontaneously hypertensive rat model assessed as change in blood pressure at 3 mg/kg, po measured after 6 hrs. Type of series: functional.
Series [21] deals with Rattus norvegicus. As to the kind of experiment: Antihypertensive activity in spontaneously hypertensive rat model assessed as change in blood pressure at 3 mg/kg, po measured after 10 hrs. Type of series: functional.
Series [22] relates to HCT-116. As to the kind of experiment: Antiproliferative activity against human HCT-116 cells assessed as inhibition of cell proliferation incubated for 24 hrs by MTT assay. The class given is functional, cell-based. As to conditions: HCT-116, 24 h.
For a further series, the system named is SW480. As to the kind of experiment: cells. As to conditions: Homo sapiens, SW480, 24 h.
Series [23] can be described thus: Half life in mouse. Type of series: ADME, organism-based. As to conditions: in vivo.
The subject of series [24] is HEK-293T. As to the kind of experiment: Antiproliferative activity against human HEK293T cells assessed as inhibition of cell proliferation by MTT assay. Type of series: functional, cell-based.
Series [25] deals with HEK-293T. As to the kind of experiment: Antitumor activity against human HEK293T cells xenografted in mouse model assessed as reduction in tumor growth at 100 mg/kg bid relative to control. Also on record: scale not given: the % may be the effect or the level left. The class given is functional.
The test system of series [26] is Canis familiaris. As to the kind of experiment: Cardioprotective activity in dogs assessed as reduction in aortic pressure at […], iv relative to control. The class given is functional, Canis lupus familiaris. Also on record: scale not given: the % may be the effect or the level left.
The test system of series [27] is Canis familiaris. As to the kind of experiment: Cardioprotective activity in dogs assessed as increasing in coronary blood flow at […], iv relative to control. Type of series: functional, Canis lupus familiaris.
In series [28] the test system is Canis familiaris. As to the kind of experiment: Cardioprotective activity in dogs assessed as increasing in coronary blood flow at 5.0 ug/kg, iv relative to control. The class given is functional, Canis lupus familiaris. Particulars: dose 5 µg/kg.
The nature of series [29]: Inhibition of HIF (unknown origin). Details: species or system Homo sapiens.
A short description of series [30]: Lipophilicity, log D of compound. The class given is physicochemical. Particulars: octanol/water.

“And” between values parts separate entries of the source, which are not always exact repeats. Identical values can stand only once. A value given as a limit tells only on which side of the number the result lay.

Chain of Ribosomal protein S6 kinase beta-1 (P23443 whole entry): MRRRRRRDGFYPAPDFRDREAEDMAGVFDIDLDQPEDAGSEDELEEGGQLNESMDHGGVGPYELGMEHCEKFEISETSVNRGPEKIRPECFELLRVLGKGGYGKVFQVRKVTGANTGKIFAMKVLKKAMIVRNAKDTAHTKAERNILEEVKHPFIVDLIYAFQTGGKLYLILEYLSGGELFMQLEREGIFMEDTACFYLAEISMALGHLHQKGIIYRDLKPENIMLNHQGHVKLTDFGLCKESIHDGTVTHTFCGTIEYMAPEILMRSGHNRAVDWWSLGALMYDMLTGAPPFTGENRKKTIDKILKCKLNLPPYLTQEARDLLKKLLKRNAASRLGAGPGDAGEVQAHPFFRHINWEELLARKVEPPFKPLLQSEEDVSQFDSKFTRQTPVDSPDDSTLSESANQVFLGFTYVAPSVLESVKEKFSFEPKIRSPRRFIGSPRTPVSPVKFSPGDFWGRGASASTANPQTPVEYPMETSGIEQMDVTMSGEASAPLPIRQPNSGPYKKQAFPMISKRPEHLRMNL
Chain of Epidermal growth factor receptor (P00533 whole entry): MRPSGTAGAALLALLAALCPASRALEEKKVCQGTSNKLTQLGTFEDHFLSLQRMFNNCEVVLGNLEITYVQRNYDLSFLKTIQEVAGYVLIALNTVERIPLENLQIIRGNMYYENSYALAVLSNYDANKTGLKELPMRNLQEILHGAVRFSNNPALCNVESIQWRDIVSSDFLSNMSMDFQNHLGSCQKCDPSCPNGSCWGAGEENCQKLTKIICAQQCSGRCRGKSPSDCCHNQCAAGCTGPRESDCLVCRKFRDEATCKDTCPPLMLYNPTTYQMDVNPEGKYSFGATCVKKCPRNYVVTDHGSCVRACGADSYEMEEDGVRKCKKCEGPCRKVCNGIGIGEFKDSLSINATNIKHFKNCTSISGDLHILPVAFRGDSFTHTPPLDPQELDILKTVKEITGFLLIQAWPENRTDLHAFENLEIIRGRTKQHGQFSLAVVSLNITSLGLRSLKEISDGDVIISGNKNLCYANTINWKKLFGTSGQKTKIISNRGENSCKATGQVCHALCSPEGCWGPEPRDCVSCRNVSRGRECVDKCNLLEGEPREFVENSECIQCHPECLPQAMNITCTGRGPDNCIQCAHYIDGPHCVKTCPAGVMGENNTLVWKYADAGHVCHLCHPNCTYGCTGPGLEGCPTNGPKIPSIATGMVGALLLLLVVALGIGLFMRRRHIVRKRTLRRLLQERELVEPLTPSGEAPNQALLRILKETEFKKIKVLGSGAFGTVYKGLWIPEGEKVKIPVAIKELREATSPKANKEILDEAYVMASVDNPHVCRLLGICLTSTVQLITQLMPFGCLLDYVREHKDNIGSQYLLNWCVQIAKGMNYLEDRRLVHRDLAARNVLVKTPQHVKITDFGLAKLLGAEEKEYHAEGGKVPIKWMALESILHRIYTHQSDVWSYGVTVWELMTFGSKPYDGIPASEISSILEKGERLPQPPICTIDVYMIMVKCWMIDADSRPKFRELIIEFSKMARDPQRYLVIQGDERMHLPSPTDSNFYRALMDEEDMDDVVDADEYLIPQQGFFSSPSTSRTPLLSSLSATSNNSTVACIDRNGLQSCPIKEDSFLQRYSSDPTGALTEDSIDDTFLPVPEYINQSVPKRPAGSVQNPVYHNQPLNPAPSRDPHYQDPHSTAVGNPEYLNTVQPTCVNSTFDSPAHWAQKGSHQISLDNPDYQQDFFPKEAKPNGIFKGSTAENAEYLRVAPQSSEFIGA
Chain of Proto-oncogene tyrosine-protein kinase Src (P12931 2-536 limits assumed): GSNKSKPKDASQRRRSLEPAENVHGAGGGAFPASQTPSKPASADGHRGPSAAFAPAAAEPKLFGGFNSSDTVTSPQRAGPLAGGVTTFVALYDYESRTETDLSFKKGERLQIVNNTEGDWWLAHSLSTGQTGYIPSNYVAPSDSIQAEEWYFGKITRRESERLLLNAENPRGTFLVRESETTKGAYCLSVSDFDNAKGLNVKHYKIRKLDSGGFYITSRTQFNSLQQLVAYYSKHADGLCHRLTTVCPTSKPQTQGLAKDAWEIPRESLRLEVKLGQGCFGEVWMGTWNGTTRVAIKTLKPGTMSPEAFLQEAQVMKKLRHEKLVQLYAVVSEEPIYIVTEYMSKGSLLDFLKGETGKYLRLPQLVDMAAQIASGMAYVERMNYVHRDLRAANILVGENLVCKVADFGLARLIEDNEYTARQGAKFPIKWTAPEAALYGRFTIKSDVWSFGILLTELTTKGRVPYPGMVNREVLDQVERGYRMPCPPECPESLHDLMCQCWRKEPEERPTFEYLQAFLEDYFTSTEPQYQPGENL
Description for SW480: Antiproliferative activity against human SW480 cells assessed as inhibition of cell proliferation incubated for 24 hrs by MTT assay

Usually IC50 stands for the point on the concentration scale where inhibition reaches its midpoint. Turning to `Cc1ccc2c(c1)nc(-c1nonc1N)n2C1CCC1`, the IC50 in series [1] came out at 19 nM.
Usually half-life stands for the time in which the quantity being followed falls by half. In the case of `O=C(CNc1nonc1/C(=N/O)N[C@H]1Cc2ccc(F)cc21)NCCO`, the half-life in series [2] was 3.7 h. The Activity in the series on HeLa worked out at 15%.
Regarding `C[C@@H](N)[C@H]1CC[C@H](C(=O)Nc2ccncc2)CC1` [Y-27632], the Activity is given as 10 bpm with Rattus norvegicus [3]; 0 bpm in the series on Rattus norvegicus [4]; -25 mmHg in the series on Rattus norvegicus [5]; -10 mmHg in the series on Rattus norvegicus [6]; -5 mmHg with Rattus norvegicus [7]; 75 bpm with Rattus norvegicus [8]. The Activity is given as -10 mmHg in the series listed under Rattus norvegicus [9] and -32 mmHg in the series listed under Rattus norvegicus [10].
A word on the EC50: it is the concentration giving half of the maximal effect. Take `Nc1ccccc1NC(=O)c1ccc(C(=O)NCCNc2nonc2/C(=N/O)Nc2ccc(F)c(Br)c2)cc1`: the concentration for a half-maximal effect (EC50) in the series on A549 [11] was determined as 170 nM; in the series with HCT-116 [12] it was 5100 nM; in series [13], 18000 nM. The compound further had a 50% inhibitory concentration (IC50) at Histone deacetylase of 67 nM. For the same compound, the half-life in series [2] was 3.4 h. The Activity in the series with A549 [14] is 56% and 54%.
Regarding `O=C(O)c1cc(-c2ccc(/C=N/Nc3nc4nonc4nc3Nc3ccccc3)o2)ccc1Cl`, the IC50 (on Aurora kinase B; in [15]; in [16]; in series [17]; in series [18]) was less than 1000 nM in each case.
With `O=S(=O)(c1cccc2cnccc12)N1CCCNCC1` [FASUDIL], the 50% inhibitory concentration (IC50) with HASMC was found to be 1300 nM. Further, the Activity is -10 bpm in the series on Rattus norvegicus [3]; -10 bpm in the series on Rattus norvegicus [4]; -50 bpm with Rattus norvegicus [8]; -30 mmHg with Rattus norvegicus [19]; -20 mmHg in the series with Rattus norvegicus [20]; 0 mmHg in the series on Rattus norvegicus [21].
`c1ccc2c(c1)c1nc3nonc3nc1n2CCc1nn[nH]n1`: the results for the EC50 in the series with HCT-116 [22] and in the series on SW480 were 31000 nM and 20000 nM, respectively.
Turning to `NS(=O)(=O)N1CCC[C@@H](CNc2nonc2/C(=N/O)Nc2ccc(F)c(Br)c2)C1`, in series [23], the half-life was 3.8 h. Further, the EC50 with HEK-293T [24] was found to be 69 nM. For the same compound, the Activity in the series on HEK-293T [25] is 25%.
Regarding `CC1(C)Oc2cc3nonc3cc2[C@@H](N2CCCCC2=O)[C@@H]1O`, the Activity is -7.5% in the series with Canis familiaris [26], 34.3% in the series on Canis familiaris [27] and 33.3% with Canis familiaris [28].
As usually defined, the logD is the decadic logarithm of the distribution of all forms, ionised or not, between an organic phase and buffer at a given pH. Regarding `CS(=O)(=O)c1ccc(Oc2cc(F)cc(C#N)c2)c2c1[C@H](O)[C@H](F)[C@@H]2F` [BELZUTIFAN], the 50% inhibitory concentration (IC50) in series [29] worked out at 9000 nM. Moreover, the logD in [30] is 1.2.
